Test results: patent publication US20240083861A1, “HSD17B13 INHIBITORS AND USES THEREOF” (FL2022-001, Inc., priority 2020, published 2024)

What follows are compounds tested against T1, Recombinant human HSD17B13 enzyme (Homo sapiens, UniProt Q7Z5P4) (assay: HSD17b13 NAD(P)H-Glo biochemical assay). Conditions: 50 uM estradiol, 1 mM NAD+, NAD(P)H-Glo luminescence; read-out: HSD17β13 IC50.
T1 sequence (Q7Z5P4 20-300): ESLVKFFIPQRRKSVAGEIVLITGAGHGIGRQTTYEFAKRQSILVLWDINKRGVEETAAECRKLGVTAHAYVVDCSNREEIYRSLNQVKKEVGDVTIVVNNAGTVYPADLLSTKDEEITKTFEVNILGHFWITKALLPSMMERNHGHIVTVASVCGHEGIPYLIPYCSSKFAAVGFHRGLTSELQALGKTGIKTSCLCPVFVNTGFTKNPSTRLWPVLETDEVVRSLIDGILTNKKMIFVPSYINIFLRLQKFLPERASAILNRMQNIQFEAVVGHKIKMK
Procedure, shortened: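 Recombinant human HSD17B13 in 20 mM Tris pH7.4 with 0.002% Tween-20 and 0.02% BSA was preincubated with inhibitor for 20 minutes at RT. The reaction ran 3 hours at 37° C with 50 uM estradiol and 1 mM NAD+ (final). NADH formed was detected by NAD(P)H-Glo luminescence after 1 hour at RT.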

Structure (SMILES)	IC50
CC(=O)N1CCN(c2cc3c(cn2)c(-c2cc(C(F)(F)F)c(F)c(O)c2F)nn3C)CC1 [Compound 9.62, 1-(4-(3-(2,4-Difluoro-3-hydroxy-5-(trifluoromethyl)phenyl)-1-methyl-1H-pyrazolo[4,3-c]pyridin-6-yl)piperazin-1-yl)ethanone]	100 to 1000 nM
CN(C)C(=O)C1CN(c2cc3c(cn2)c(-c2cc(C(F)(F)F)c(F)c(O)c2F)nn3C)CCO1 (stereo not drawn) [Compound 9.65, 4-(3-(2,4-Difluoro-3-hydroxy-5-(trifluoromethyl)phenyl)-1-methyl-1H-pyrazolo[4,3-c]pyridin-6-yl)-N,N-dimethylmorpholine-2-carboxamide]	100 to 1000 nM
CN1CCN(c2cc3c(cn2)c(-c2cc(C(F)(F)F)c(F)c(O)c2F)nn3C)CC1=O [Compound 9.68, 4-(3-(2,4-Difluoro-3-hydroxy-5-(trifluoromethyl)phenyl)-1-methyl-1H-pyrazolo[4,3-c]pyridin-6-yl)-1-methylpiperazin-2-one]	< 100 nM
Cn1nc(-c2cc(C(F)(F)F)c(F)c(O)c2F)c2cnc(N3CCCOCC34CC4)cc21 [Compound 9.69, 2,6-Difluoro-3-(1-methyl-6-(8-oxa-4-azaspiro[2.6]nonan-4-yl)-1H-pyrazolo[4,3-c]pyridin-3-yl)-5-(trifluoromethyl)phenol]	< 100 nM
Cn1nc(-c2cc(C(F)(F)F)c(F)c(O)c2F)c2cnc(N3CCOCCC34CC4)cc21 [Compound 9.70, 2,6-Difluoro-3-(1-methyl-6-(7-oxa-4-azaspiro[2.6]nonan-4-yl)-1H-pyrazolo[4,3-c]pyridin-3-yl)-5-(trifluoromethyl)phenol]	< 100 nM
Oc1c(F)c(-c2nn(C3CCCOC3)c3nc(N4CCOCC45CC5)ccc23)cc(C(F)(F)F)c1F (stereo not drawn) [Compound 9.71, 3-(6-(7-Oxa-4-azaspiro[2.5]octan-4-yl)-1-(tetrahydro-2H-pyran-3-yl)-1H-pyrazolo[3,4-b]pyridin-3-yl)-2,6-difluoro-5-(trifluoromethyl)phenol]	100 to 1000 nM
COCCn1nc(-c2cc(C(F)(F)F)c(F)c(O)c2F)c2ccc(N3CCOCC34CC4)nc21 [Compound 9.72, 2,6-Difluoro-3-(1-(2-methoxyethyl)-6-(7-oxa-4-azaspiro[2.5]octan-4-yl)-1H-pyrazolo[3,4-b]pyridin-3-yl)-5-(trifluoromethyl)phenol]	< 100 nM

Continued, values first:

IC50	Structure (SMILES)
< 100 nM	Cn1nc(-c2cc(C(F)(F)F)c(F)c(O)c2F)c2cnc(N3CCOCC3C3(C)CC3)cc21 (stereo not drawn) [Compound 9.61, 2,6-Difluoro-3-(1-methyl-6-(3-(1-methylcyclopropyl)morpholino)-1H-pyrazolo[4,3-c]pyridin-3-yl)-5-(trifluoromethyl)phenol]
< 100 nM	CC(C)N1CCN(c2cc3c(cn2)c(-c2cc(C(F)(F)F)c(F)c(O)c2F)nn3C)CC1=O [Compound 9.63, 4-(3-(2,4-Difluoro-3-hydroxy-5-(trifluoromethyl)phenyl)-1-methyl-1H-pyrazolo[4,3-c]pyridin-6-yl)-1-isopropylpiperazin-2-one]
< 100 nM	CN(CC1CCOCC1)c1cc2c(cn1)c(-c1cc(C(F)(F)F)c(F)c(O)c1F)nn2C [Compound 9.64, 2,6-Difluoro-3-(1-methyl-6-(methyl((tetrahydro-2H-pyran-4-yl)methyl)amino)-1H-pyrazolo[4,3-c]pyridin-3-yl)-5-(trifluoromethyl)phenol]
< 100 nM	CC(=O)N1CCC(N(C)c2cc3c(cn2)c(-c2cc(C(F)(F)F)c(F)c(O)c2F)nn3C)CC1 [Compound 9.66, 1-(4-((3-(2,4-Difluoro-3-hydroxy-5-(trifluoromethyl)phenyl)-1-methyl-1H-pyrazolo[4,3-c]pyridin-6-yl)(methyl)amino)piperidin-1-yl)ethanone]
< 100 nM	Cn1nc(-c2cc(C(F)(F)F)c(F)c(O)c2F)c2cnc(N3CCOCC3C3CCC3)cc21 (stereo not drawn) [Compound 9.67, 3-(6-(3-Cyclobutylmorpholino)-1-methyl-1H-pyrazolo[4,3-c]pyridin-3-yl)-2,6-difluoro-5-(trifluoromethyl)phenol]
